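Where inhibition never reached the appropriate level, the endpoint shown equals the highest concentration tested. Otherwise, values were interpolated linearly from a five-concentration, 48-hour dose response in 96-well plates. GI50 = concentration required for 50% inhibition of growth. The concentration for full growth arrest is given as TGI.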

We go through 16 compounds from PubChem BioAssay (NCI).

What all share (test): growth of human tumour cells (NCI), 48 h
Assay [1] deals with MCF7 breast.
For assay [2], the system named is SNB-19 CNS.
Assay [3] has as its system RXF 393 renal.
The subject of assay [4] is IGROV1 ovarian.
Assay [5] concerns MOLT-4 leukemia.
Assay [6] relates to NCI-H226 lung.
The test system of assay [7] is SN12C renal.
Assay [8] has as its system PC-3 prostate.
Assay [9] concerns HOP-92 NSCLC.
The test system of assay [10] is BT-549 breast.

Consider `N#CCC12CC=CCC1=C(O)C(=O)c1ccc(O)cc12` (centres undefined), for which the TGI in [1], in assay [2], in assay [3], in [4], in [5] and in assay [6] was above 100 µM in each case. Moreover, the TGI in [7] and in [8] was above 100 µM each time.

Regarding `N#CCCN(CCC#N)c1ccc(/C=N\c2nc(-c3ccccc3)cs2)cc1`, the TGI in [2], in assay [9], in [3], in [4], in assay [5] and in assay [6] was above 100 µM throughout. The TGI in assay [7] is above 100 µM.

As for `Cc1cc(Cl)ccc1NC(=O)CC1SC(N)=NC1=O` (centres undefined), the TGI in assay [2], in assay [3], in [4], in [5], in assay [6] and in [7] was above 100 µM throughout.

For the compound `CC(=O)OC1(C#N)CC2OC1C1C2N1C(=O)OC(C)(C)C` (centres undefined), the TGI in assay [2], in assay [9], in assay [3], in assay [4], in assay [5] and in [6] was above 100 µM in each case. For the same compound, the TGI in [7] was above 100 µM.

Turning to `CN1C(=O)c2cc([N+](=O)[O-])ccc2[C@H]2C(=O)c3cc4c(cc3[C@H]21)OCO4`, the GI50 in assay [1] was 0.118 µM; in assay [2], 0.22 µM; in assay [9] it was 1.49 µM; in assay [3], 0.398 µM; in assay [4], 0.153 µM; in assay [5] it was 0.145 µM. The GI50 was 0.0386 µM in assay [7] and 0.521 µM in assay [8]. In addition, the TGI in assay [1] was 0.451 µM; in assay [2], above 28.2 µM; in assay [4], 12 µM; in assay [5], above 100 µM; in assay [7], 0.838 µM; in assay [8], 63 µM.

For the compound `Cc1ccc(NC(=O)COC(=O)c2cccc3c(=O)c4ccccc4[nH]c23)cc1`, the TGI in assay [2] is above 100 µM; in assay [9] it was above 100 µM; in [3] it was 60.5 µM; in assay [4] it was above 100 µM; in [5] it was above 100 µM; in [6] it was 96.7 µM. The compound further displayed a TGI in assay [7] above 100 µM.

In the case of `COC(=O)c1c(C)cc2c(c1O)C1(O)C(=O)c3cc4c(c(O)c3C(=O)C1(OC)C(O)C2)C(=O)C=C(NC1OC(C)C(OC)C(O)C1OC)C4=O` (centres undefined), the TGI in assay [2] turned out to be 1.22 µM; in assay [9] it was 0.443 µM; in assay [3], 0.0525 µM; in assay [4], 0.0635 µM; in [5], 0.13 µM; in assay [6], 0.416 µM. Also, the TGI in assay [7] was 0.243 µM.

Turning to `CN(C)CC(C)(C)C(/C=C/c1ccccc1)=N\Nc1ccccc1`, the TGI was above 100 µM in assay [2]; 32.8 µM in assay [3]; 17.9 µM in [4]; 17.3 µM in assay [5]; 17.6 µM in assay [7].

With `O=C1CCCC(=O)C1=C(O)CCCCCCCCCCc1ccccc1`, the TGI is above 100 µM in [2]; 39.6 µM in [9]; 92.7 µM in assay [3]; above 100 µM in assay [4]; above 100 µM in [5]; 96.9 µM in assay [6]. Further, the TGI in [7] is above 100 µM.

In the case of `Cc1ccc([N+](=O)[O-])cc1NC(=O)C(=O)Cc1cc(=O)oc2cc(O)ccc12`, the TGI in [2], in assay [9], in assay [3], in [4], in assay [5] and in assay [6] was above 100 µM each time. The same compound displayed a TGI in [7] above 100 µM.

In the case of `Cc1cc(NS(=O)(=O)c2ccc(NC(=O)c3cccc4cc5ccccc5nc34)cc2)no1`, the TGI in assay [2] turned out to be 19.3 µM; in [3] it was 29.1 µM; in [4], 64.8 µM; in assay [5], 48.4 µM; in assay [7], 43.3 µM.

On to `Cc1nc(N)sc1N=Nc1cc(Cl)c([N+](=O)[O-])cc1Cl`, for which the TGI is 68.8 µM in assay [1]; above 100 µM in [2]; above 100 µM in assay [3]; 47.2 µM in assay [4]; 22.4 µM in [5]; 44.4 µM in assay [6]. The TGI in assay [7] came to 56.1 µM; in [8], 53.3 µM.

For the compound `N#CCc1ccc(/C(C#N)=C2/OC(=N)C(c3ccc(CC#N)cc3)C2=O)cc1` (centres undefined), the TGI in [2], in [9], in assay [3], in assay [4], in [5] and in assay [6] was above 100 µM throughout. The TGI in [7] was above 100 µM.

On to `O=C1C2C(C(=O)N1c1ccccc1)C1(c3ccccc3)OC2(c2ccccc2)c2ccccc21` (centres undefined), for which the TGI in [2], in [9], in [3], in [4], in assay [5] and in assay [7] was above 100 µM in each case.

With `Oc1ccc2c3c1OC1C(=NN=C4CCC5(O)C6Cc7ccc(O)c8c7C5(CCN6CC5CC5)C4O8)CCC4(O)C(C2)N(CC2CC2)CCC314` (centres undefined), the TGI was above 100 µM in assay [2]; 53.4 µM in [9]; above 100 µM in [3]; above 100 µM in [4]; above 74 µM in assay [5]; above 100 µM in [6]. For the same compound, the TGI in [7] was above 59.9 µM.

Turning to `CCCCCCCCCCCCSC(=NC)NC`, the GI50 in assay [2] is 3.06 µM; in [9], 1.39 µM; in [3], 1.89 µM; in assay [4], 2.52 µM; in assay [5] it was 2.01 µM; in [10], 4.09 µM. In addition, the GI50 is 2.67 µM in [7] and 1.9 µM in assay [8]. Besides, the TGI in assay [2] was determined as 17.6 µM; in assay [9], 5.49 µM; in [3] it was 4.15 µM; in [4], 5.83 µM; in assay [5] it was 5.05 µM; in assay [10], 21 µM. Besides, the TGI in assay [7] stood at 7.69 µM; in [8], 4.94 µM.
